From patent publication US8536164B2, “Fused pyridine compounds as casein kinase inhibitors” (Pfizer Inc., priority 2010, dated 2013)
pEC50, pIC50: −log10 of the molar value.

What was measured:
[1] = target: T1, human CK1δ (Cos 7 cells cotransfected with mouse Per3-GFP) (Homo sapiens, UniProt P48730); experiment: CK1 WCA HCS nuclear translocation assay (CK1δ); format: cell-based; conditions: inhibition of mPer3-GFP translocation to the nucleus, overnight exposure, read-out: CK1 δ WCA EC50
T1 construct: His tag of the vector pcDNA4/hisA (only the vector name is printed); expressed in transfected cells; host or cells: Cos 7 cells
Procedure: (§1) CK1 WCA HCS Nuclear Translocation Assay.
(§2) Cos 7 cells were maintained at 37° C. in 5% CO2 in Dulbecco's Modified Eagle Medium (Gibco 11995) supplemented with 10% fetal bovine serum. Log-phase cells were dislodged with 5 min treatment of TrypLE Express (Gibco 12605) and viable cell count was determined with Cedex cell counter. Cells were diluted in DMEM medium to a density of 1.5e5 viable cells/mL in ⅔ of the final volume of final transfected cell mix. Cells were cotransfected with two plasmid DNAs, mouse Per3-GFP (green fluorescent protein) in pd2EGFP-N1 vector and human CKI in pcDNA4/hisA vector (for CK1Epsilon at a ratio of 1:5 respectively; for CK1δ at a ratio of 1:11 respectively), using Lipofectamine 2000 reagent (Invitrogen) according to the manufacturer's recommendations. The transfection mix contained approximately 0.83 μg/mL of DNA and 6 μL/mL of Lipofectamine 2000, in a total of ⅓ of the final transfection volume in Opti-MEM I medium (Invitrogen). After 20 min at rt, the cell mix was combined with the DNA transfection mix, per manufacturer instructions. 50 μL of the transfected cell suspension was dispensed per well by multidrop dispenser into Greiner 384-well Cellcoat (PDL) plates (Greiner #781946).
(§3) Compounds were solubilized in 100% DMSO, diluted with Opti-MEM I to a 4× concentration before addition to plated cells. After overnight exposure at 37° C. in a CO2 incubator, cells were fixed by the addition of 12% paraformaldehyde (Electron Microscopy Sciences, Hatfield, Pa.) in phosphate-buffered saline (PBS) with 20% sucrose to a final concentration of 4%, and then the cells were incubated for 30 min at rt. Fixative was removed, and cells were washed with PBS and then stained with 0.4 μg/ml Hoechst dye (Invitrogen) in blocking buffer containing 4% goat serum (Vector Labs s-1000) and 0.1% TritonX (Sigma T8787) for 1 h. Cells were washed again with PBS and stored at 4° C. in PBS or scanned immediately with the Cellomics ArrayScan VTI. CKIδ dependent nuclear localization of the GFP-tagged mPer3 protein was quantitated using the Cellomics ArrayScan VTI system utilizing the Cytoplasm to Nucleus translocation bioapplication to calculate the Nuclear-Cytoplasmic Intensity difference. Inhibitors of CK1 δ/ε were tested across a dose response curve to evaluate their ability to inhibit mPer3-GFP translocation to the nucleus. Cells with a total intensity of mPER3:GFP expression equal to or greater than 20,000 are included in analysis.

[2] = target: T2, human CK1Epsilon (Cos 7 cells cotransfected with mouse Per3-GFP) (Homo sapiens, UniProt P49674); experiment: CK1 WCA HCS nuclear translocation assay (CK1ε); format: cell-based; conditions: inhibition of mPer3-GFP translocation to the nucleus, overnight exposure, read-out: CK1 ε WCA EC50
T2 construct: His tag of the vector pcDNA4/hisA (only the vector name is printed); expressed in transfected cells; host or cells: Cos 7 cells
Procedure: as §1, §2, §3

CKIδ wild type = CKIδ wild type (Homo sapiens, UniProt P48730); experiment: CK1δ kinase assay (Kinase-Glo); format: biochemical; conditions: 10 μM ATP, 2 nM CKIδ, 85 min at 25° C.; read-out: CK1 δ IC50
Procedure: (§4) The CK1δ kinase assay was performed in a 40 μl final volume in buffer containing 50 mM Tris, pH 7.5, 10 mM MgCl2, 1 mM dithiothreitol, 100 μg/mL BSA with 10 μM ATP, 2 nM CKIδ wild type, and 42 μM peptide substrate PLSRTLp[…] (Flotow et al., 1990) in the presence of 1 μl of CKIδ inhibitor or 4% DMSO. The reaction was incubated for 85 min at 25° C.; detection was carried out as described for the Kinase-Glo Assay (Promega). Luminescent output was measured on the Perkin Elmer Envision plate reader (PerkinElmer, Waltham, Mass.).

CKI ε wild type = CKI ε wild type (Homo sapiens, UniProt P49674); experiment: CK1ε kinase assay (Kinase-Glo); format: biochemical; conditions: 10 μM ATP, 2.5 nM CKI ε, 70 min at 25° C.; read-out: CK1 ε:IC50
Procedure: as §4, with “The CK1ε” for “The CK1δ”, “a 40-μl” for “a 40 μl”, “ATP, 2.5” for “ATP, 2”, “nM CKI ε” for “nM CKIδ”, “of CKI ε” for “of CKIδ”, “for 70” for “for 85”

CKIδ wild type, sequence (P48730 whole entry): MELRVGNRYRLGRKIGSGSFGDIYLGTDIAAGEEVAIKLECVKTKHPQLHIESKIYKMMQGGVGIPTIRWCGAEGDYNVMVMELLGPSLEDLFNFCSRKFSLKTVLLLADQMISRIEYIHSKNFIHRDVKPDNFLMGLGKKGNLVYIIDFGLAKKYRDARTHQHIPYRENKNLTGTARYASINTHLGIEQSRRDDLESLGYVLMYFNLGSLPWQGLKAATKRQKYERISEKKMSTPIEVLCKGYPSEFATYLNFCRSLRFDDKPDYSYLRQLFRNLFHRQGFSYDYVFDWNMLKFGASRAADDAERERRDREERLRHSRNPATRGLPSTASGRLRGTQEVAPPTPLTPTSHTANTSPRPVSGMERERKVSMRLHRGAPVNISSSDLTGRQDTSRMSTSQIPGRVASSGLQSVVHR
T1 sequence (P48730 whole entry): as above
CKI ε wild type, sequence (P49674 whole entry): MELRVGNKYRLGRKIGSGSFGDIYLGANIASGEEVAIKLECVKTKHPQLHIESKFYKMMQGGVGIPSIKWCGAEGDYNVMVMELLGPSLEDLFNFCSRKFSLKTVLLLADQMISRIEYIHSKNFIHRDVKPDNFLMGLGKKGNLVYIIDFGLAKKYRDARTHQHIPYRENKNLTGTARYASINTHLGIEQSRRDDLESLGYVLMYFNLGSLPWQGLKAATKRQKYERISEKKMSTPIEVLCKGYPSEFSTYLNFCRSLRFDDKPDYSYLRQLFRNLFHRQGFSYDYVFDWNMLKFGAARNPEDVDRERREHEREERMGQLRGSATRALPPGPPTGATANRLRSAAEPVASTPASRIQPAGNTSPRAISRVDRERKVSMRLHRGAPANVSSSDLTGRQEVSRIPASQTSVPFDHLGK
T2 sequence (P49674 whole entry): as above

Row | SMILES | pEC50 [1] | pEC50 [2] | pIC50 (CKIδ wild type) | pIC50 (CKI ε wild type)
1 | Cn1cc(-c2ccnc3c2CN(C(=O)C2CCOC2)C3)c(-c2ccc(F)cc2)n1 (centres unmarked) [Example 16, 4-[3-(4-fluorophenyl)-1-methyl-1H-pyrazol-4-yl]-6-(tetrahydrofuran-3-ylcarbonyl)-6,7-dihydro-5H-pyrrolo[3,4-b]pyridine] | 7.42 | 6.66 | – | –
2 | CN1Cc2nccc(-c3cn(C)nc3-c3ccc(Cl)cc3)c2C1=O [Example 3, 4-[3-(4-chlorophenyl)-1-methyl-1H-pyrazol-4-yl]-6-methyl-6,7-dihydro-5H-pyrrolo[3,4-b]pyridin-5-one] | 7.11 | 6.46 | – | –
3 | Cn1cc(-c2ccnc3c2CN(C(=O)C2CC2)C3)c(-c2ccc(F)cc2)n1 [Example 21, 6-(cyclopropylcarbonyl)-4-[3-(4-fluorophenyl)-1-methyl-1H-pyrazol-4-yl]-6,7-dihydro-5H-pyrrolo[3,4-b]pyridine] | 7.74 | 7.08 | – | –
4 | Cn1cc(-c2ccnc3c2CN(C(=O)Cc2ncccn2)C3)c(-c2ccc(F)cc2)n1 [Example 20, 4-[3-(4-fluorophenyl)-1-methyl-1H-pyrazol-4-yl]-6-(pyrimidin-2-ylacetyl)-6,7-dihydro-5H-pyrrolo[3,4-b]pyridine] | 7.07 | 6.44 | – | –
5 | CC(=O)N1Cc2nccc(-c3cn(C)nc3-c3ccc(F)cc3)c2C1 [Example 14, 6-acetyl-4-[3-(4-fluorophenyl)-1-methyl-1H-pyrazol-4-yl]-6,7-dihydro-5H-pyrrolo[3,4-b]pyridine] | 7.40 | 6.82 | – | –
6 | CC1CNCc2nccc(-c3cn(C)nc3-c3ccc(F)cc3)c2O1 (racemic) [Example 8, 9-[3-(4-fluorophenyl)-1-methyl-1H-pyrazol-4-yl]-2-methyl-2,3,4,5-tetrahydropyrido[2,3-f][1,4]oxazepine] | 7.33 | 6.66 | – | –
7 | CC1COc2c(-c3cn(C)nc3-c3ccc(F)cc3)ccnc2CN1 (centres unmarked) [Example 9, 9-[3-(4-fluorophenyl)-1-methyl-1H-pyrazol-4-yl]-3-methyl-2,3,4,5-tetrahydropyrido[2,3-f][1,4]oxazepine] | 6.70 | 6.08 | – | –
8 | COCC(=O)N1Cc2nccc(-c3cn(C)nc3-c3ccc(F)cc3)c2C1 [Example 17, 4-[3-(4-fluorophenyl)-1-methyl-1H-pyrazol-4-yl]-6-(methoxyacetyl)-6,7-dihydro-5H-pyrrolo[3,4-b]pyridine] | 7.32 | 6.68 | – | –
9 | Cn1cc(-c2ccnc3c2CN(S(=O)(=O)C2CC2)C3)c(-c2ccc(F)cc2)n1 [Example 12, 6-(cyclopropylsulfonyl)-4-[3-(4-fluorophenyl)-1-methyl-1H-pyrazol-4-yl]-6,7-dihydro-5H-pyrrolo[3,4-b]pyridine] | 6.69 | 6.05 | – | –
10 | Cn1cc(-c2ccnc3c2CN(C(=O)OCc2ccccc2)C3)c(-c2ccc(F)cc2)n1 [Example 22, benzyl 4-[3-(4-fluorophenyl)-1-methyl-1H-pyrazol-4-yl]-5,7-dihydro-6H-pyrrolo[3,4-b]pyridine-6-carboxylate] | 7.29 | 6.56 | – | –
11 | Cn1cc(-c2ccnc3c2CCC3O)c(-c2ccc(F)cc2)n1 (centres unmarked) [Example 24, 4-[3-(4-fluorophenyl)-1-methyl-1H-pyrazol-4-yl]-6,7-dihydro-5H-cyclopenta[b]pyridin-7-ol] | 6.58 | – | 7.55 | 6.83
12 | Cn1cc(-c2ccnc3c2C(=O)N([C@H]2[C@@H]4COC[C@@H]42)C3)c(-c2ccc(F)cc2)n1 [Example 45, 4-[3-(4-fluorophenyl)-1-methyl-1H-pyrazol-4-yl]-6-[(1R,5S,6r)-3-oxabicyclo[3.1.0]hex-6-yl]-6,7-dihydro-5H-pyrrolo[3,4-b]pyridin-5-one] | 6.78 | – | 7.71 | 7.06
13 | Cn1cc(-c2ccnc3c2C(=O)N(Cc2ccccc2)C3)c(-c2ccc(F)cc2)n1 [Example 5, 6-benzyl-4-[3-(4-fluorophenyl)-1-methyl-1H-pyrazol-4-yl]-6,7-dihydro-5H-pyrrolo[3,4-b]pyridin-5-one] | 7.79 | – | 8.22 | 7.41
14 | Cn1cc(-c2ccnc3c2C(=O)N(CC2CCOC2)C3)c(-c2ccc(F)cc2)n1 (centres unmarked) [Example 27, 4-[3-(4-fluorophenyl)-1-methyl-1H-pyrazol-4-yl]-6-(tetrahydrofuran-3-ylmethyl)-6,7-dihydro-5H-pyrrolo[3,4-b]pyridin-5-one] | 6.43 | – | 7.45 | 6.68
15 | Cn1cc(-c2ccnc3c2C(=O)N(CC2CC2)C3)c(-c2ccc(F)cc2)n1 [Example 37, 6-(cyclopropylmethyl)-4-[3-(4-fluorophenyl)-1-methyl-1H-pyrazol-4-yl]-6,7-dihydro-5H-pyrrolo[3,4-b]pyridin-5-one] | 7.13 | – | 7.89 | 7.08
16 | Cn1cc(-c2ccnc3c2C(=O)N(Cc2cccc(C#N)c2)C3)c(-c2ccc(F)cc2)n1 [Example 41, 3-({4-[3-(4-fluorophenyl)-1-methyl-1H-pyrazol-4-yl]-5-oxo-5,7-dihydro-6H-pyrrolo[3,4-b]pyridin-6-yl}methyl)benzonitrile] | 7.18 | – | 7.69 | 6.97
17 | Cn1cc(-c2ccnc3c2C(=O)N([C@H]2CCOC2=O)C3)c(-c2ccc(F)cc2)n1 [Example 46, 4-[3-(4-fluorophenyl)-1-methyl-1H-pyrazol-4-yl]-6-[(3S)-2-oxotetrahydrofuran-3-yl]-6,7-dihydro-5H-pyrrolo[3,4-b]pyridin-5-one] | 5.84 | – | 7.16 | 6.42
18 | Cn1cc(-c2ccnc3c2CN(Cc2ccccc2)C3)c(-c2ccc(F)cc2)n1 [Example 6, 6-benzyl-4-[3-(4-fluorophenyl)-1-methyl-1H-pyrazol-4-yl]-6,7-dihydro-5H-pyrrolo[3,4-b]pyridine] | 6.69 | – | 7.21 | 6.53
19 | Cc1noc(CCN2Cc3nccc(-c4cn(C)nc4-c4ccc(F)cc4)c3C2=O)n1 [Example 38, 4-[3-(4-fluorophenyl)-1-methyl-1H-pyrazol-4-yl]-6-[2-(3-methyl-1,2,4-oxadiazol-5-yl)ethyl]-6,7-dihydro-5H-pyrrolo[3,4-b]pyridin-5-one] | 7.15 | – | 7.73 | 7.04
20 | Cn1cc(-c2ccnc3c2C(=O)N(C2CCCC2)C3)c(-c2ccc(F)cc2)n1 [Example 32, 6-cyclopentyl-4-[3-(4-fluorophenyl)-1-methyl-1H-pyrazol-4-yl]-6,7-dihydro-5H-pyrrolo[3,4-b]pyridin-5-one] | 7.07 | – | 8.05 | 7.39
21 | CNC1CCc2c(-c3cn(C)nc3-c3ccc(F)cc3)ccnc21 (centres unmarked) [Example 25, 4-[3-(4-fluorophenyl)-1-methyl-1H-pyrazol-4-yl]-N-methyl-6,7-dihydro-5H-cyclopenta[b]pyridin-7-amine] | 7.22 | – | 7.76 | 7.08
